Data: patent publication US6949575B2, “Method of inhibiting amyloid protein aggregation and imaging amyloid deposits using aminoindane derivatives” (Pfizer Inc., priority 2000, dated 2005)
Values joined by “and” are separate entries in the source; they are usually repeats but may differ in a detail not shown here. Identical values can stand only once.

How the values were obtained:
Type in all cases: biochemical
Soluble Aβ(1-40) = biological target: T1, Soluble Aβ(1-40) (Homo sapiens, UniProt P05067); experiment: BASST (Beta-Amyloid Self-Seeding, Thioflavin T): inhibitors of self-seeded amyloid fibril growth; details: 30 μM soluble Aβ(1-40), 37° C., 3 to 5 hours, thioflavin T fluorescence
T1 construct: Soluble Aβ(1-40)—2.2 mg/mL in deionized H2O
T1 sequence (P05067 672-711 limits assumed): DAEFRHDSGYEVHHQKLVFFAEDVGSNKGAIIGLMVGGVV
Protocol: • 1) Prepare reaction mixture above by mixing components and storing on ice. • 2) Pipet 14.5 μL of reaction mixture into each of 50 wells on a polypropylene U-bottom 96-well microtiter plate on ice (Costar 3794). • 3) Add 1.7 μL of diluted compound to be tested to each well in a column of eight, including solvent control. Serial 3-fold dilutions from 1 mM (100 μM final) in assay buffer-urea=7 dilutions+zero. Each 96-well plate can therefore accommodate 11 samples+1 Congo Red control (0.039-5 μM final in 2-fold steps). • 4) Seal the plate with aluminum film (Beckman 538619) and incubate for 10 minutes on ice. • 5) Raise the temperature to 37° C. and incubate for 3 to 5 hours (depending on the lot of the peptide). • 6) Remove the aluminum film and add 200 μL/well of ice cold assay buffer with urea, collecting the radiolabeled fibrils by vacuum filtration through 0.2-μm pore size GVWP filters in 96-well plates (Millipore MAGV […], Bedford, Mass.). Determine the radioactivity of the filters using standard methods well-known to those skilled in the art. BASST (Beta-Amyloid Self-Seeding, Thioflavin T) An assay for inhibitors of self-seeded amyloid fibril growth Methods: Materials: Stock Solutions: Assay Buffer-50 mM sodium phosphate, pH 7.5, 100 mM NaCl, 0.02% NaN3, 1 M urea (filter and store at 4° C.) Soluble Aβ(1-40)-2.2 mg/mL in deionized H2O (store in aliquots at -20° C., keep on ice when thawed) will self-seed after 1 week storage. Typically, the solution should be stored until no lag phase is seen in the assay. Final assay conditions: 30 μM soluble Aβ(1-40) in deionized water in assay buffer. Compound to be tested is dissolved in DMSO, typically 5 to 50 mM stock, such that the final concentration of DMSO is <1% v/v in the assay. Assay: Reaction mixture for 50 assays (on ice) comprised of 1 μL of soluble Aβ(1-40)+13.5 μL assay buffer per assay. The following are the amounts of the components of the reaction mixture that result in each of the 50 assay wells. 50 μL soluble Aβ(1-40) 675 μL assay buffer Assay Method • 1) Prepare the reaction mix above by mixing the components and storing on ice. • 2) Pipet 14.5 μL of reaction mixture into each of 50 wells of a polystyrene U-bottom 96-well microtiter plate (Coming 25881-96) on ice. • 3) Add 1.7 μL of diluted compound to be tested to each well in a column of eight, including solvent control. Serial 3-fold dilutions from 1 mM (100 μM final) in assay buffer-urea=7 dilutions+zero. Each 96-well plate can therefore accommodate 11 samples+1 Congo Red control (0.039-5 μM final in 2-fold steps). • 4) Seal the plate with aluminum film and incubate for 10 minutes on ice. • 5) Raise the temperature to 37° C. and incubate for 3 to 5 hours (depends on the lot of the peptide). • 6) Remove the aluminum film and add 250 μL/well of 5 μM thioflavin T (ThT) [T-3516, Sigma-Aldrich] in 50 mM glycine-NaOH, pH 8.5. Read fluorescence on a plate reader (ex=440 nm/20 nm; em=485 nm/20 nm) within 5 minutes. BAPA (Beta-Amyloid Peptide Aggregation)

Aβ (1-42) = biological target: T2, Aβ (1-42) (Homo sapiens, UniProt P05067); experiment: Batym Assay: Aβ (1-42) aggregation, Thioflavin T fluorescence; details: Aβ1-42 final 100 μM, 37° C., 1 day, read-out: BAYTM IC50
T2 construct: Required Aβ (1-42) (California Peptide); purchased California Peptide
T2 sequence (P05067 672-713 limits assumed): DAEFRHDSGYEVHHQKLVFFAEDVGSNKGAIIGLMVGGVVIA
Protocol: Required Aβ (1-42) (California Peptide) was dried from its HFIP stock solution. The Aβ (1-42) was dissolved in DMSO and then mixed with phosphate buffered saline (PBS) (pH 7.4). The mixed Aβ (1-42) solution was filtered with a Omnipore membrane 0.2-μm syringe filter (Millipore, Bedford, Mass.). The compound to be tested in DMSO (50× concentrate) was put into each well (0.5 μL/well) of a 96-well plate. The Aβ (1-42) solution was added into each well (24.5 μL/well). The plate was centrifuged at 1,000 g for 5 minutes and incubated at 37° C. for 1 day (Aβ1-42; final concentration 100 μM).
After incubation, Thioflavin T (ThT) (30 μM) solution in glycine-NaOH buffer (pH 8.5, 50 mM) was added into each well (250 μL/well), fluorescence was measured (ex=440/20 nm; em=485/20 nm) using a fluorescence plate reader. The inhibitory activity was calculated as the reduction of fluorescence with the following formula: Inhibition (%)={(F(Aβ)−F(Aβ+compound)}/{F(Aβ)−[…]}×100
The IC50s were calculated by a curve fitting program using the following equation. The data were obtained from two different experiments in triplicate. Inhibition (x)=100−100/{1+(x/IC50)^n}. • x=concentration of tested compound (M). • IC50=(M). • n=Hill coefficient.

Soluble Aβ(1-40) peptide = biological target: T3, Soluble Aβ(1-40) peptide (Homo sapiens, UniProt P05067); experiment: BASSR (Beta-Amyloid Self-Seeding Radioassay): inhibitors of self-seeded amyloid fibril growth; details: 30 μM soluble Aβ(1-40) + 125I-labeled Aβ(1-40), 37° C., 3 to 5 hours, filtration; replicate values
T3 construct: Soluble Aβ(1-40) peptide; purchased Bachem, Torrance, Calif
T3 sequence (P05067 672-711 limits assumed): as the sequence (P05067 672-711 limits assumed) above
Protocol: BASSR (Beta-Amyloid Self-Seeding Radioassay)
An assay for inhibitors of self-seeded amyloid fibril growth
Assay Buffer—[…] sodium phosphate, pH 7.5, 100 mM NaCl, 0.02% NaN3, 1 M urea (filter and store at 4° C.)
Soluble Aβ(1-40) peptide (Bachem, Torrance, Calif.)—2.2 mg/mL in deionized H2O (stored in aliquots at −20° C., keep on ice when thawed) will self-seed after 1 week storage. Typically, the solution should be stored until no lag phase is seen in the assay.
^125I-labeled Aβ(1-40)—150 to 350K cpm/μL in 100% acetonitrile—0.1% trifluoroacetic acid (TFA)—1% β-mercaptoethanol (aliquots stored at −20° C.). ^125I-labeled Aβ(1-40) can be made in accordance with the procedure set forth by H. Levine, III in Neurobiol. Aging, 16:755 (1995), which is hereby incorporated by reference, or this reagent may be purchased from Amersham, Arlington Heights, Ill. Final assay conditions: 30 μM soluble Aβ(1-40) in deionized water in assay buffer+20 to 50K cpm ^125I-labeled Aβ(1-40) per assay. Compound to be tested is dissolved in dimethylsulfoxide (DMSO), typically 5 to 50 mM stock, such that the final concentration of DMSO is <1% v/v in the assay. Assay: Reaction mixture for 50 assays (on ice) is comprised of 0.1 to 0.2 μL of ^125I-labeled A^125I-labeled Aβ(1-40)+1 μL of soluble Aβ(1-40)+13.5 μL assay buffer per assay. The following are the amounts of the components of the reaction mixture sufficient for 50 assay wells.
• 1) Prepare reaction mixture above by mixing components and storing on ice. • 2) Pipet 14.5 μL of reaction mixture into each of 50 wells on a polypropylene U-bottom 96-well microtiter plate on ice (Costar 3794). • 3) Add 1.7 μL of diluted compound to be tested to each well in a column of eight, including solvent control. Serial 3-fold dilutions from 1 mM (100 μM final) in assay buffer-urea=7 dilutions+zero. Each 96-well plate can therefore accommodate 11 samples+1 Congo Red control (0.039-5 μM final in 2-fold steps). • 4) Seal the plate with aluminum film (Beckman 538619) and incubate for 10 minutes on ice. • 5) Raise the temperature to 37° C. and incubate for 3 to 5 hours (depending on the lot of the peptide). • 6) Remove the aluminum film and add 200 μL/well of ice cold assay buffer with urea, collecting the radiolabeled fibrils by vacuum filtration through 0.2-μm pore size GVWP filters in 96-well plates (Millipore MAGV N22, Bedford, Mass.). Determine the radioactivity of the filters using standard methods well-known to those skilled in the art. BASST (Beta-Amyloid Self-Seeding, Thioflavin T)

Aβ (1-40) peptide = biological target: T4, Aβ (1-40) peptide (Homo sapiens, UniProt P05067); experiment: BAPA (Beta-Amyloid Peptide Aggregation, pH 6.0), filtration endpoint; details: Aβ(1-40) 33 μM, pH 6.0, 2 to 4 hours, room temperature
T4 construct: Aβ (1-40) peptide in 20% HFIP
T4 sequence (P05067 672-711 limits assumed): as above
Protocol: • 1) Prepare the reaction mix above by mixing the components and storing on ice. • 2) Pipet 14.5 μL of reaction mixture into each of 50 wells of a polystyrene U-bottom 96-well microtiter plate (Coming 25881-96) on ice. • 3) Add 1.7 μL of diluted compound to be tested to each well in a column of eight, including solvent control. Serial 3-fold dilutions from 1 mM (100 μM final) in assay buffer-urea=7 dilutions+zero. Each 96-well plate can therefore accommodate 11 samples+1 Congo Red control (0.039-5 μM final in 2-fold steps). • 4) Seal the plate with aluminum film and incubate for 10 minutes on ice. • 5) Raise the temperature to 37° C. and incubate for 3 to 5 hours (depends on the lot of the peptide). • 6) Remove the aluminum film and add 250 μL/well of 5 μM thioflavin T (ThT) [T-3516, Sigma-Aldrich] in 50 mM glycine-NaOH, pH 8.5. Read fluorescence on a plate reader (ex=440 nm/20 nm; em=485 nm/20 nm) within 5 minutes. BAPA (Beta-Amyloid Peptide Aggregation) This assay is used to provide a measure of inhibition by a compound against the aggregation behavior of the β-amyloid peptide. The purpose of this assay is to provide a higher volume method of assaying the amount of β-amyloid aggregation using an endpoint assay based on filtration. In this assay, hexafluoroisopropanol (HFIP) is used to break down the initial amyloid peptide to a monomer state and use a concentration of 33 μM which is high enough so that aggregation will occur at pH 6.0 in several hours. Methods: Beta-Amyloid Peptide Aggregation, pH 6.0 (BAPA) In a 96-well plate (Costar 3794), we add 25 μL 50 mM phosphate buffer, pH 6.0, 10 μL 0.5 mg/mL Aβ (1-40) peptide in 20% HFIP+0.1 μL/assay radioiodinated ^125I Aβ (1-40) [^125I Aβ(1-40)], and 1 μL of the compound to be tested starting at 50 mM with a concentration of DMSO<1%. Then, we incubate for 2 to 4 hours at room temperature. We stop the reaction with 200 μL of 50 mM phosphate buffer, pH 6.0, and filter it through a 0.2 μm 96-well filter plate (Millipore MAGU […]). We wash the filter plate with 100 μL of the same phosphate buffer. Aggregation was detected on a Microbeta counter after impregnating the filters with Meltilex (1450-441) and is corrected for background.

IC50 (Soluble Aβ(1-40))	IC50 (Aβ (1-42))	IC50 (Soluble Aβ(1-40) peptide)	IC50 (Aβ (1-40) peptide)	Structure (SMILES)
40 µM	> 100 µM	> 100 µM		O=C(O)c1ccccc1Nc1ccc2c(c1)CC(NCc1ccc(Cl)c(Cl)c1)C2 (centres unmarked) [Example 3, 2-[2-(3,4-Dichlorobenzylamino)-indane-5-ylamino]-benzoic acid]
1.1 µM	16 µM		28 µM	O=C(O)c1cc([N+](=O)[O-])ccc1Nc1ccc2c(c1)CC(NCc1ccc(Cl)c(Cl)c1)C2 (centres unmarked) [Example 4, 2-[2-(3,4-Dichlorobenzylamino)-indan-5-ylamine]-5-nitro-benzoic Acid]
0.25 µM			5 µM	O=C(O)c1cc([N+](=O)[O-])ccc1NC1Cc2ccc(Nc3ccc(Cl)c(Cl)c3)cc2C1 (centres unmarked) [Example 9, 2-[5-(3,4-Dichlorophenylamino)-indan-2-ylamino]-5-nitro-benzoic acid]
1 µM	7 µM and 12 µM		7 µM	O=C(O)c1cc([N+](=O)[O-])ccc1Nc1ccc2c(c1)CC(N(Cc1ccc(F)cc1)Cc1ccc(F)cc1)C2 (centres unmarked) [Example 11, 2-{2-[bis-(4-Fluorobenzyl)amino]indan-5-ylamino}-5-nitro-benzoic acid]
